Reference: patent US20110086916A1, “INTERVAL THERAPY FOR THE TREATMENT OF TINNITUS” (MERZ PHARMA GmbH & CO. KGaA, priority 2007, published 2011)

System: subjects with subjective tinnitus of at least moderate severity
Test: Double blind placebo controlled pilot trial of neramexane for treatment of tinnitus (TBF-12 score)
Assay type: in vivo, human
Conditions: for Change in the TBF-12 total score from baseline, Change LSMean: ANCOVA
Method: Visit 1 (screening): After signing the consent form, the subject underwent a physical examination and clinical laboratory testing. Patient eligibility for the study was evaluated via a check of inclusion/exclusion criteria. An initial Tinnitus Interview was conducted. The subject also completed a Tinnitus-Beeinträchtigungs-Fragebogen (TBF-12) (i.e., a 12-item German modified and validated version (Greimel K V et al., Tinnitus-Beeinträchtigungs-Fragebogen (TBF-12). Manual. Frankfurt am Main: Swets & Zeitlinger B.V.; 2000) of the 25-item Tinnitus Handicap Inventory or THI (Newman C W, et al. Development of the Tinnitus Handicap Inventory. Arch Otolaryngol Head Neck Surg 1996; 122(2): 143-148; Newman C W, et al. Psychometric adequacy of the Tinnitus Handicap Inventory (THI) for evaluating treatment outcome. J Am Acad Audiol 1998; 9(2): 153-160.)), a Hospital Anxiety and Depression Scale—Depression Subscale (HADS-D) Questionnaire and a Hyperacusis (Geräuschüberempfindlichkeit-Fragenbogen (GÜF)) Questionnaire (if applicable).
Visit 2 (baseline): The subject was asked about adverse events and changes in concomitant medication/disease, which events/changes were documented. The subject was evaluated for study eligibility based on a review of the inclusion/exclusion criteria. Trial procedures as well as allowed and forbidden concomitant medications were reviewed with the subject. An initial Tinnitus Interview was conducted. The subject also completed a TBF-12, HADS-D Questionnaire and GÜF Questionnaire (if applicable). The subject was enrolled in the study and study medication (placebo or neramexane) was dispensed as described below.
Visit 3 (Week 4): This visit occurred at the end of the 4-week up-titration sequence. The subject was asked about adverse events and changes in concomitant medication/disease, which events/changes were documented. A follow-up Tinnitus Interview was conducted. The subject also completed a TBF-12, HADS-D Questionnaire and GÜF Questionnaire (if applicable). Medication compliance was assessed, and medication for the next 4 weeks was dispensed as described below.
(§1) Visit 4 (Week 8): This visit occurred at the end of the first 4-week fixed-dose double-blind treatment period. The subject was asked about adverse events and changes in concomitant medication/disease, which changes are documented. Blood samples were collected in order to determine neramexane pre-dose concentration. A follow-up Tinnitus Interview was conducted. The subject also completed a TBF-12, HADS-D Questionnaire and GÜF Questionnaire (if applicable). Medication compliance was assessed and, medication for the next 4 weeks was dispensed as described below.
as §1, with “Visit 5” for “Visit 4”, “(Week 12):” for “(Week 8):”, “the second” for “the first”, “documented.” for “documented. Blood samples were collected in order to determine neramexane pre-dose concentration.”
Visit 6 (Week 16, end of treatment): This visit occurred at the end of the 12-week fixed-dose double-blind treatment period. The subject was asked about adverse events and changes in concomitant medication/disease, which changes are documented. A clinical laboratory evaluation was performed. A follow-up Tinnitus Interview was conducted, and the subject completed a TBF-12, HADS-D Questionnaire and GÜF Questionnaire (if applicable). Pure-tone audiometry (air conduction) was also conducted.
Visit 7 (Week 20): This visit occurred at the end of the 4-week follow-up period after the last study medication dose. Review of concomitant medications as well as the occurrence of adverse events since the last visit is conducted with subject. […]

[1] = 25 mg/d, Week 4, ITT-LOCF, n=106
[2] = 25 mg/d, Week 8, ITT-LOCF, n=106
[3] = 25 mg/d, Week 12, ITT-LOCF, n=106
[4] = 25 mg/d, Week 16 (end of treatment), ITT-LOCF, n=106
[5] = 25 mg/d, Week 20 (Follow-up, 4 weeks without treatment), ITT-LOCF, n=100
[6] = 50 mg/d, Week 4, ITT-LOCF, n=106
[7] = 50 mg/d, Week 8, ITT-LOCF, n=106
[8] = 50 mg/d, Week 12, ITT-LOCF, n=106
[9] = 50 mg/d, Week 16 (end of treatment), ITT-LOCF, n=106
[10] = 50 mg/d, Week 20 (Follow-up, 4 weeks without treatment), ITT-LOCF, n=95
[11] = 75 mg/d, Week 4, ITT-LOCF, n=99
[12] = 75 mg/d, Week 8, ITT-LOCF, n=99
[13] = 75 mg/d, Week 12, ITT-LOCF, n=99
[14] = 75 mg/d, Week 16 (end of treatment), ITT-LOCF, n=99
[15] = 75 mg/d, Week 20 (Follow-up, 4 weeks without treatment), ITT-LOCF, n=89

Q: Which results are given for `CC1(C)CC(C)(C)CC(C)(N)C1.CS(=O)(=O)O` [neramexane mesylate]?
A: Improvement of tinnitus as measured by the TBF-12 (after 16-week double-blind treatment (Visit 6), final daily doses of 50 or 75 mg, distinct from placebo or low-dose (25 mg) groups): clear improvement of their tinnitus; Differences in TBF-12 improvement between the 50 mg and the placebo group (end of the 4-week wash-out (Week 20, Visit 7), 50 mg): reached statistical significance; Improvement of tinnitus during 4-week wash-out period without any medication (subjects previously treated with either 50 or 75 mg): further relevant improvement of their tinnitus

Q: `CC1(C)CC(C)(C)CC(C)(N)C1` [Neramexane, 1-amino-1,3,3,5,5-pentamethylcyclohexane] was tested. Which “Change in the TBF-12 total score from baseline, Change LSMean” value (“Change … Change LSMean” below) (25 mg/d, Week 4, ITT-LOCF) did it give?
A: −0.8

Q: And the “Change in the TBF-12 total score from baseline, Change Mean ± SD” value (“Change … Change Mean ± SD” below) [1]?
A: −1.0 ± 2.6

Q: And the “TBF-12 total score, Actual Mean ± SD” value [1]?
A: 13.4 ± 4.5

Q: What about the “Change in TBF-12 total score, Neramexane - Placebo LSMean Diff. ± SE” value (shortened to “Change … - Placebo LSMean Diff. ± SE”) (25 mg/d, Week 4, ITT-LOCF, 95% CI [−0.8, 0.7], p-value 0.875) of the same molecule?
A: −0.1 ± 0.4

Q: And the “Change … Change LSMean” value (25 mg/d, Week 8, ITT-LOCF)?
A: −1.5

Q: What about the “Change … Change Mean ± SD” value [2] of the same molecule?
A: −1.7 ± 2.9

Q: What about the “TBF-12 total score, Actual Mean ± SD” value [2] of the same molecule?
A: 12.7 ± 4.9

Q: What about the “Change … - Placebo LSMean Diff. ± SE” value (25 mg/d, Week 8, ITT-LOCF, 95% CI [−0.5, 1.2], p-value 0.429) of the same molecule?
A: 0.3 ± 0.4

Q: And the “Change … Change LSMean” value (25 mg/d, Week 12, ITT-LOCF)?
A: −1.4

Q: What about the “Change … Change Mean ± SD” value [3] of the same molecule?
A: −1.6 ± 3.4

Q: What about the “TBF-12 total score, Actual Mean ± SD” value [3] of the same molecule?
A: 12.8 ± 5.0

Q: What about the “Change … - Placebo LSMean Diff. ± SE” value (25 mg/d, Week 12, ITT-LOCF, 95% CI [−0.3, 1.6], p-value 0.182) of the same molecule?
A: 0.6 ± 0.5

Q: And the “Change … Change LSMean” value (25 mg/d, Week 16 (end of treatment), ITT-LOCF)?
A: −1.8

Q: What about the “Change … Change Mean ± SD” value [4] of the same molecule?
A: −2.0 ± 3.4

Q: And the “TBF-12 total score, Actual Mean ± SD” value [4]?
A: 12.4 ± 5.3

Q: What about the “Change … - Placebo LSMean Diff. ± SE” value (25 mg/d, Week 16 (end of treatment), ITT-LOCF, 95% CI [−0.5, 1.5], p-value 0.359) of the same molecule?
A: 0.5 ± 0.5

Q: And the “Change … - Placebo LSMean Diff. ± SE” value (25 mg/d, Week 20 (Follow-up), ITT-LOCF, 95% CI [−0.6, 1.6], p-value 0.336)?
A: 0.5 ± 0.6

Q: And the “Change … Change LSMean” value (25 mg/d, Week 20 (Follow-up, 4 weeks without treatment), ITT-LOCF)?
A: −2.0

Q: And the “Change … Change Mean ± SD” value [5]?
A: −2.1 ± 3.4

Q: And the “TBF-12 total score, Actual Mean ± SD” value [5]?
A: 12.3 ± 5.5

Q: And the “Change … Change LSMean” value (50 mg/d, Week 4, ITT-LOCF)?
A: −1.4

Q: And the “Change … Change Mean ± SD” value [6]?
A: −1.4 ± 3.2

Q: What about the “TBF-12 total score, Actual Mean ± SD” value [6] of the same molecule?
A: 13.0 ± 4.7

Q: What about the “Change … - Placebo LSMean Diff. ± SE” value (50 mg/d, Week 4, ITT-LOCF, 95% CI [−1.3, 0.1], p-value 0.110) of the same molecule?
A: −0.6 ± 0.4

Q: What about the “Change … Change LSMean” value (50 mg/d, Week 8, ITT-LOCF) of the same molecule?
A: −2.1

Q: What about the “Change … Change Mean ± SD” value [7] of the same molecule?
A: −2.2 ± 3.3

Q: What about the “TBF-12 total score, Actual Mean ± SD” value [7] of the same molecule?
A: 12.3 ± 4.8

Q: What about the “Change … - Placebo LSMean Diff. ± SE” value (50 mg/d, Week 8, ITT-LOCF, 95% CI [−1.1, 0.5], p-value 0.488) of the same molecule?
A: −0.3 ± 0.4

Q: And the “Change … Change LSMean” value (50 mg/d, Week 12, ITT-LOCF)?
A: −2.5

Q: What about the “Change … Change Mean ± SD” value [8] of the same molecule?
A: −2.6 ± 3.8

Q: And the “TBF-12 total score, Actual Mean ± SD” value [8]?
A: 11.8 ± 4.9

Q: What about the “Change … - Placebo LSMean Diff. ± SE” value (50 mg/d, Week 12, ITT-LOCF, 95% CI [−1.4, 0.5], p-value 0.357) of the same molecule?
A: −0.4 ± 0.5

Q: What about the “Change … Change LSMean” value (50 mg/d, Week 16 (end of treatment), ITT-LOCF) of the same molecule?
A: −3.1

Q: What about the “Change … Change Mean ± SD” value [9] of the same molecule?
A: −3.2 ± 4.1

Q: And the “TBF-12 total score, Actual Mean ± SD” value [9]?
A: 11.2 ± 5.1

Q: And the “Change … - Placebo LSMean Diff. ± SE” value (50 mg/d, Week 16 (end of treatment), ITT-LOCF, 95% CI [−1.8, 0.2], p-value 0.098)?
A: −0.8 ± 0.5

Q: What about the “Change … - Placebo LSMean Diff. ± SE” value (50 mg/d, Week 20 (Follow-up), ITT-LOCF, 95% CI [−2.4, −0.2], p-value 0.021) of the same molecule?
A: −1.3 ± 0.6

Q: What about the “Change … Change LSMean” value (50 mg/d, Week 20 (Follow-up, 4 weeks without treatment), ITT-LOCF) of the same molecule?
A: −3.8

Q: What about the “Change … Change Mean ± SD” value [10] of the same molecule?
A: −3.9 ± 4.4

Q: And the “TBF-12 total score, Actual Mean ± SD” value [10]?
A: 10.4 ± 5.3

Q: And the “Change … Change LSMean” value (75 mg/d, Week 4, ITT-LOCF)?
A: −1.6

Q: What about the “Change … Change Mean ± SD” value [11] of the same molecule?
A: −1.7 ± 2.7

Q: What about the “TBF-12 total score, Actual Mean ± SD” value [11] of the same molecule?
A: 12.2 ± 4.3

Q: And the “Change … - Placebo LSMean Diff. ± SE” value (75 mg/d, Week 4, ITT-LOCF, 95% CI [−1.6, −0.1], p-value 0.026)?
A: −0.9 ± 0.4

Q: What about the “Change … Change LSMean” value (75 mg/d, Week 8, ITT-LOCF) of the same molecule?
A: −1.9

Q: What about the “Change … Change Mean ± SD” value [12] of the same molecule?
A: −2.0 ± 3.3

Q: And the “TBF-12 total score, Actual Mean ± SD” value [12]?
A: 11.9 ± 4.5

Q: And the “Change … - Placebo LSMean Diff. ± SE” value (75 mg/d, Week 8, ITT-LOCF, 95% CI [−1.0, 0.7], p-value 0.813)?
A: −0.1 ± 0.4

Q: What about the “Change … Change LSMean” value (75 mg/d, Week 12, ITT-LOCF) of the same molecule?
A: −2.4

Q: What about the “Change … Change Mean ± SD” value [13] of the same molecule?
A: −2.5 ± 3.5

Q: What about the “TBF-12 total score, Actual Mean ± SD” value [13] of the same molecule?
A: 11.4 ± 4.9

Q: What about the “Change … - Placebo LSMean Diff. ± SE” value (75 mg/d, Week 12, ITT-LOCF, 95% CI [−1.3, 0.6], p-value 0.457) of the same molecule?
A: −0.4 ± 0.5

Q: And the “Change … Change LSMean” value (75 mg/d, Week 16 (end of treatment), ITT-LOCF)?
A: −2.8

Q: And the “Change … Change Mean ± SD” value [14]?
A: −2.9 ± 3.9

Q: And the “TBF-12 total score, Actual Mean ± SD” value [14]?
A: 11.0 ± 5.1

Q: What about the “Change … - Placebo LSMean Diff. ± SE” value (75 mg/d, Week 16 (end of treatment), ITT-LOCF, 95% CI [−1.6, 0.5], p-value 0.289) of the same molecule?
A: −0.5 ± 0.5

Q: And the “Change … - Placebo LSMean Diff. ± SE” value (75 mg/d, Week 20 (Follow-up), ITT-LOCF, 95% CI [−1.8, 0.5], p-value 0.244)?
A: −0.7 ± 0.6

Q: What about the “Change … Change LSMean” value (75 mg/d, Week 20 (Follow-up, 4 weeks without treatment), ITT-LOCF) of the same molecule?
A: −3.2

Q: What about the “Change … Change Mean ± SD” value [15] of the same molecule?
A: −3.3 ± 3.6

Q: What about the “TBF-12 total score, Actual Mean ± SD” value [15] of the same molecule?
A: 10.5 ± 4.9

Q: And the “Capability for improvement of tinnitus after withdrawal (conclusion of pilot trial)” value (after drug withdrawal)?
A: sustained improvement of tinnitus even after the drug is withdrawn

Q: What about the “Further improvement of tinnitus during 4-week wash-out period without any medication” value (subjects who had received low-dose (25 mg)) of the same molecule?
A: not reported
